Results from EP2853293B1, “Thioninium compounds and their use” (WisTa Laboratories Ltd., priority 2006, dated 2007).
Where a name gives a salt, the structure may show the parent alone. Read-outs that look alike come from different tables or passages of the source.

Tests used:
[1] = target: T1, full-length tau ("T40") in fibroblast cells (3T6) (Homo sapiens, UniProt P10636); assay: Cell-based assay for establishing EC50 (inhibition of generation of the 12 kD PHF-core tau fragment); details: concentration at which there is a 50% inhibition of generation of the 12 kD fragment; 3T6 cells
T1 construct: fibroblast cells (3T6) express full-length tau ("T40") under control of an inducible promotor; low constitutive levels of the PHF-core tau fragment (12 kD fragment); expressed in transfected cells; host or cells: 3T6 fibroblast cells
T1 sequence (P10636 2-441 isoform P10636-8 limits assumed): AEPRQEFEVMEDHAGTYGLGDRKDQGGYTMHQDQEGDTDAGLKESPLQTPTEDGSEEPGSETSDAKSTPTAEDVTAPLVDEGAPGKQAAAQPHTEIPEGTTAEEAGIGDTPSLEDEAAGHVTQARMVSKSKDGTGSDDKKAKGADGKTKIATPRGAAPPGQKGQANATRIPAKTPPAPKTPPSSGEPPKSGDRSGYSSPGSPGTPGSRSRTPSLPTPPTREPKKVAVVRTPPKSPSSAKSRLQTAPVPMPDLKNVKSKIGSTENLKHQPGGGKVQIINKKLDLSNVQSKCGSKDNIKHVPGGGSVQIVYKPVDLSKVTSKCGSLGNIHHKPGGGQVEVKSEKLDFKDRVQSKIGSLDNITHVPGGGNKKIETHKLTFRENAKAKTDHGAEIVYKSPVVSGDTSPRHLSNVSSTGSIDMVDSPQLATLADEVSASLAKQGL
From the text: In essence, fibroblast cells (3T6) express full-length tau ("T40") under control of an inducible promotor, and low constitutive levels of the PHF-core tau fragment (12 kD fragment).
This is referred to as the EC50 value.

fibroblast cells (3T6) = details: cell numbers after 24 hrs exposure, lactate dehydrogenase assay after lysis of remaining cells
Method: Toxicity of the compounds described herein was assessed in the cell based assay used to assess EC50. Toxicity was measured by cell numbers after 24 hrs exposure to the compound using a lactate dehydrogenase assay kit TOX-7(Sigma Biosciences) according to the manufacturer's instructions after lysis of remaining cells. Alternatively a kit from Promega UK (CytoTox 96) was used, again according to the manufacturer's instructions.

[2] = target: T2, tau-tau binding (truncated tau residues 297-390; dGA, and full-length tau (T40)) (Homo sapiens, UniProt P10636); details: read-out: B50; concentration of compound required to inhibit the tau-tau binding by 50%
T2 sequence (P10636 614-707): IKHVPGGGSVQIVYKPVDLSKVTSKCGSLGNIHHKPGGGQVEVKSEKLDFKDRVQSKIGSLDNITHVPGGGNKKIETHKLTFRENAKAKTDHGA
T2 sequence (P10636 1-441 isoform P10636-8): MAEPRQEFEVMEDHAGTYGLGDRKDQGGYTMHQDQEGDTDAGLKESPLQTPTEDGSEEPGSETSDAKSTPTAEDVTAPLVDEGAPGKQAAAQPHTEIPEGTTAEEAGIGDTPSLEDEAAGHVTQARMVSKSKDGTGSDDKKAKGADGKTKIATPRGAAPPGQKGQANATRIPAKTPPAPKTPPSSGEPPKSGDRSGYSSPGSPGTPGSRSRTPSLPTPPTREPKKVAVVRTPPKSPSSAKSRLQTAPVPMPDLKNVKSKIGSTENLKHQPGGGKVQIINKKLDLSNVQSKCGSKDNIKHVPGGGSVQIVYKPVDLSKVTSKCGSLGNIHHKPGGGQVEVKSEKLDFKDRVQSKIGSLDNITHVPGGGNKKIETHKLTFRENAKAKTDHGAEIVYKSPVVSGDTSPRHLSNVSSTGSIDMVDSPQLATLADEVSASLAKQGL
From the text: (§1) Briefly, a fragment of tau corresponding to the core repeat domain, which has been adsorbed to a solid phase substrate, is able to capture soluble full-length tau and bind tau with high affinity.
(§2) The aqueous phase binding buffer contained 0.05% Tween-20 and 1% gelatine in phosphate-buffered saline (pH7.4).

[3] = target: T2, tau-tau binding (truncated tau residues 297-390; dGA, and full-length tau (T40)); assay: biochemical
From the text: as §1, §2

## CCN(CC)c1cc(C)c2nc3c(C)cc(N(CC)CC)cc3[s+]c2c1 [DMETC, 1,9-dimethyl-ethyl-thioninium chloride]
[1]
  EC50: 4 ± 1 nM
Fibroblast cells (3T6)
  LD50: 4.2 ± 2.2 (4) µM
[2]
  IC50: 4.5 ± 0.3 µM

## CCc1cc(N(C)C)cc2[s+]c3cc(N(C)C)cc(CC)c3nc12 [DEMTC, 1,9-diethyl-methyl-thioninium chloride]
[1]
  EC50: 1.6 ± 0.6 nM
Fibroblast cells (3T6)
  LD50: 3.3 ± 0.6 (22) µM

## CCc1cc(N(CC)CC)cc2[s+]c3cc(N(CC)CC)cc(CC)c3nc12 [DEETC, 1,9-diethyl-ethyl-thioninium chloride]
[1]
  EC50: 0.6 ± 0.3 nM
Fibroblast cells (3T6)
  LD50: 1.6 ± 0.4 (13) µM
[2]
  IC50: 3.7 ± 0.5 µM

## CCN(CC)c1ccc2nc3ccc(=[N+](CC)CC)cc-3sc2c1 [ETI.HI, ethyl-thioninium iodide hydrogen iodide mixed salt]
[3]
  IC50: 83 µM

## Cc1cc(N(C)C)cc2[s+]c3cc(N(C)C)cc(C)c3nc12 [DMMTC, 1,9-dimethyl-methyl-thioninium chloride, reference compound]
[1]
  EC50: 40 ± 4 nM
Fibroblast cells (3T6)
  LD50: 2.7 ± 1.2 (6) µM

## CCN(CC)c1ccc2nc3ccc(=[N+](CC)CC)cc-3sc2c1 [ETI, ethyl-thioninium iodide]
[1]
  EC50: 60 nM
[2]
  IC50: > 500 µM

## ethyl-thioninium chloride [ETC]
[1]
  EC50: 70 ± 7 nM
Fibroblast cells (3T6)
  LD50: 32.0 ± 4.0 (26) µM
[2]
  IC50: 49 ± 8.5 µM
